US12285407B2, “Bis-indolylmethane derivatives and uses thereof” (The University of The West Indies, priority 2018, dated 2025)
Where two headings read alike, the source gives them in different places.

Experiments:
Streptococcus pneumoniae [1] = experiment: Adjuvant broth microdilution (antibiotic MIC with SP-BIM at 50 μg/mL); type: cell-based; conditions: Streptococcus pneumoniae; Streptococcus pneumonia; antibiotic alone; Table 5; read-out: MIC of antibiotic, No compound
Escherichia coli [2] = experiment: microbe, parasite or virus in culture; type: cell-based; conditions: antibiotic alone, Table 6, read-out: MIC of antibiotic, No compound
Klebsiella pneumoniae [3] = experiment: Adjuvant broth microdilution (antibiotic MIC with SP-BIM at 50 μg/mL); type: cell-based; conditions: antibiotic alone
Bacillus cereus [4] = experiment: as above; type: cell-based; conditions: antibiotic alone, Table 9
Pseudomonas aeruginosa = experiment: as above; type: cell-based; conditions: antibiotic alone
Enterobacter cloacae = experiment: as above; type: cell-based; conditions: antibiotic alone
Escherichia coli O157:H7 = type: cell-based; conditions: antibiotic alone, no SP-BIM
Staphylococcus aureus = experiment: Checkerboard synergy (FICI) of antibiotics with SP-BIM; type: cell-based; conditions: Staphylococcus aureus, Staphylococcus aureus; for MIC: 24 h, antibiotic alone, read-out: MIC antibiotic only
Streptococcus pneumoniae [5] = experiment: as above; type: cell-based; conditions: for MIC: 24 h, antibiotic alone, read-out: MIC antibiotic only
Bacillus cereus [6] = experiment: as above; type: cell-based; conditions: for MIC: 24 h, antibiotic alone, read-out: MIC antibiotic only
Enterococcus faecium = experiment: as above; type: cell-based; conditions: Enterococcus faecium, Enterococcus faecium; for MIC: 24 h, antibiotic alone, read-out: MIC antibiotic only
Klebsiella pneumoniae [7] = experiment: as above; type: cell-based; conditions: for MIC: 24 h, antibiotic alone, read-out: MIC antibiotic only
[8] = test system: clinical strains of Enterococcus faecium; experiment: Kirby Bauer disc diffusion susceptibility profile; type: cell-based; conditions: for Zone of clearance: 35° C., 24 hours, average n=3; for Interpretive standard (resistant/susceptible): zones vs EUCAST breakpoints (Table 31)
[9] = test system: clinical antibiotic resistant isolates of Enterococcus faecium; experiment: Checkerboard resistance breaking by SP-BIM 13; type: cell-based; conditions: for FIC compound: SP-BIM 13 with the labelled antibiotic; for Interpretation / Σ FIC: antibiotic + SP-BIM 13; for MIC of antibiotic only: antibiotic alone; for FIC antibiotic: combination with SP-BIM 13; for MIC of antibiotic in combination: with SP-BIM 13 at rescue concentration
Escherichia coli [10] = experiment: Checkerboard synergy (FICI) of antibiotics with SP-BIM; parameters: MIC SP-BIM 13 only / MIC in combination: Antibiotic: unit not given beside the values; conditions: for MIC: 24 h
Candida albicans = experiment: as above; parameters: MIC SP-BIM 13 only / MIC in combination: Antibiotic / MIC antibiotic only: unit not given beside the values
[11] = SP-BIM 9 in combination with the labelled antibiotic
[12] = SP-BIM 13 in combination with the labelled antibiotic
[13] = antibiotic in combination with SP-BIM 9
[14] = antibiotic in combination with SP-BIM 13
[15] = Streptococcus pneumonia (title: Streptococcus pyogenes), antibiotic + SP-BIM 9
[16] = Streptococcus pneumoniae, antibiotic + SP-BIM 13
[17] = MIC of the antibiotic in combination with SP-BIM 13

For `CC1(C)S[C@@H]2[C@H](NC(=O)[C@H](N)c3ccccc3)C(=O)N2[C@H]1C(=O)O` [Ampicillin, ampicillin], the MIC (Streptococcus pneumoniae [1]) was 0.5 µg/mL, the MIC (Escherichia coli [2]) was 63 µg/mL and the “MIC of antibiotic, No Compound” value (Klebsiella pneumoniae [3]; Klebsiella pneumonia, no SP-BIM) was over 250 µg/mL. The MIC (Klebsiella pneumoniae [3]; Klebsiella pneumoniae, Table 7, read-out: MIC of antibiotic, No compound) was over 250 µg/mL, the “MIC of antibiotic, No Compound” value (Bacillus cereus [4]) was over 250 µg/mL and the “MIC of antibiotic, No Compound” value (Pseudomonas aeruginosa) was over 250 µg/mL. The “MIC of antibiotic, No Compound” value (Enterobacter cloacae) was over 250 µg/mL, the “MIC of antibiotic, No Compound” value (Escherichia coli O157:H7) was 8 µg/mL and the MIC (Staphylococcus aureus; SP-BIM 9 checkerboard) was 0.5 µg/mL. For the same molecule, the MIC (Staphylococcus aureus; SP-BIM 13 checkerboard) was 0.5 µg/mL, the “FIC of SP-BIM 9” value (Staphylococcus aureus; [11]) was 0.50 and the “FIC of SP-BIM 13” value (Staphylococcus aureus; [12]) was 0.0. For the same molecule, the Interpretation (Staphylococcus aureus; antibiotic + SP-BIM 9) was “Additive (Additive: FICI>0.5-1.0)”, the “Σ FIC” value (Staphylococcus aureus; antibiotic + SP-BIM 9) was under 0.90 and the Interpretation (Staphylococcus aureus; antibiotic + SP-BIM 13) was “Additive (Additive: FICI>0.5-1.0)”. The “Σ FIC” value (Staphylococcus aureus; antibiotic + SP-BIM 13) was 1.0, the “MIC in combination, Antibiotic” value (Staphylococcus aureus; [13]) was 0.2 µg/mL and the “MIC in combination, Antibiotic” value (Staphylococcus aureus; [14]) was 0.5 µg/mL. For the same molecule, the FIC of antibiotic (Staphylococcus aureus; in combination with SP-BIM 9) was 0.40, the FIC of antibiotic (Staphylococcus aureus; in combination with SP-BIM 13) was 1.0 and the “FIC of SP-BIM 9” value (Streptococcus pneumoniae [5]; Streptococcus pneumonia (title: Streptococcus pyogenes), SP-BIM 9 in combination with the labelled antibiotic) was 0.06. The Interpretation (Streptococcus pneumoniae [5]; [15]) was “Synergy (Synergy: FICI≤0.5)”, the “Σ FIC” value (Streptococcus pneumoniae [5]; [15]) was under 0.06 and the “MIC in combination, Antibiotic” value (Streptococcus pneumoniae [5]; Streptococcus pneumonia (title: Streptococcus pyogenes), antibiotic in combination with SP-BIM 9) was 0.1 µg/mL. For the same molecule, the FIC of antibiotic (Streptococcus pneumoniae [5]; Streptococcus pneumonia (title: Streptococcus pyogenes), in combination with SP-BIM 9) was 0.00, the MIC (Streptococcus pneumoniae [5]; Streptococcus pneumoniae, Streptococcus pneumonia (title: Streptococcus pyogenes), SP-BIM 9 checkerboard) was over 250 µg/mL and the MIC (Streptococcus pneumoniae [5]; Streptococcus pneumoniae, Streptococcus pneumoniae, SP-BIM 13 checkerboard) was 250 µg/mL. The “FIC of SP-BIM 13” value (Streptococcus pneumoniae [5]; Streptococcus pneumoniae, SP-BIM 13 in combination with the labelled antibiotic) was 0.3, the Interpretation (Streptococcus pneumoniae [5]; [16]) was “Synergy (Synergy: FICI≤0.5)” and the “Σ FIC” value (Streptococcus pneumoniae [5]; [16]) was under 0.3. For the same molecule, the “MIC in combination, Antibiotic” value (Streptococcus pneumoniae [5]; Streptococcus pneumoniae, antibiotic in combination with SP-BIM 13) was 2 µg/mL, the FIC of antibiotic (Streptococcus pneumoniae [5]; Streptococcus pneumoniae, in combination with SP-BIM 13) was 0.0 and the MIC (Bacillus cereus [6]; SP-BIM 9 checkerboard) was 8 µg/mL. For the same molecule, the MIC (Bacillus cereus [6]; SP-BIM 13 checkerboard) was 8 µg/mL, the “FIC of SP-BIM 13” value (Bacillus cereus [6]; [12]) was 0.3 and the Interpretation (Bacillus cereus [6]; antibiotic + SP-BIM 13) was “Synergy (Synergy: FICI≤0.5)”. For the same molecule, the “Σ FIC” value (Bacillus cereus [6]; antibiotic + SP-BIM 13) was 0.3, the “MIC in combination, Antibiotic” value (Bacillus cereus [6]; [14]) was 0.5 µg/mL and the FIC of antibiotic (Bacillus cereus [6]; in combination with SP-BIM 13) was 0.06. For the same molecule, the MIC (Enterococcus faecium; SP-BIM 9 checkerboard) was 250 µg/mL, the MIC (Enterococcus faecium; SP-BIM 13 checkerboard) was 250 µg/mL and the “MIC in combination, SP-BIM 9” value (Enterococcus faecium; SP-BIM 9 concentration in combination with the labelled antibiotic) was 64 µg/mL. For the same molecule, the “FIC of SP-BIM 9” value (Enterococcus faecium; [11]) was 0.3, the “FIC of SP-BIM 13” value (Enterococcus faecium; [12]) was 0.5 and the Interpretation (Enterococcus faecium; antibiotic + SP-BIM 9) was “Synergy (Synergy: FICI≤0.5)”. The “Σ FIC” value (Enterococcus faecium; antibiotic + SP-BIM 9) was at most 0.3, the Interpretation (Enterococcus faecium; antibiotic + SP-BIM 13) was “Additive (Additive: FICI>0.5-1.0)” and the “Σ FIC” value (Enterococcus faecium; antibiotic + SP-BIM 13) was under 0.6. For the same molecule, the “MIC in combination, Antibiotic” value (Enterococcus faecium; [13]) was 0.1 µg/mL, the “MIC in combination, Antibiotic” value (Enterococcus faecium; [14]) was 16 µg/mL and the FIC of antibiotic (Enterococcus faecium; in combination with SP-BIM 9) was 0.0. The FIC of antibiotic (Enterococcus faecium; in combination with SP-BIM 13) was 0.1, the MIC (Klebsiella pneumoniae [7]; SP-BIM 9 checkerboard) was 250 µg/mL and the MIC (Klebsiella pneumoniae [7]; SP-BIM 13 checkerboard) was 250 µg/mL. The “FIC of SP-BIM 9” value (Klebsiella pneumoniae [7]; [11]) was 1, the “FIC of SP-BIM 13” value (Klebsiella pneumoniae [7]; [12]) was 0.3 and the Interpretation (Klebsiella pneumoniae [7]; antibiotic + SP-BIM 9) was “Synergy (Synergy: FICI≤0.5)”. The “Σ FIC” value (Klebsiella pneumoniae [7]; antibiotic + SP-BIM 9) was under 1.0, the Interpretation (Klebsiella pneumoniae [7]; antibiotic + SP-BIM 13) was “Indifferent (Indifferent: FICI>1.0-4.0)” and the “Σ FIC” value (Klebsiella pneumoniae [7]; antibiotic + SP-BIM 13) was under 1.3. For the same molecule, the “MIC in combination, Antibiotic” value (Klebsiella pneumoniae [7]; [13]) was 2 µg/mL, the “MIC in combination, Antibiotic” value (Klebsiella pneumoniae [7]; [14]) was 250 µg/mL and the FIC of antibiotic (Klebsiella pneumoniae [7]; in combination with SP-BIM 9) was 0.008. For the same molecule, the FIC of antibiotic (Klebsiella pneumoniae [7]; in combination with SP-BIM 13) was 1.0, the Zone of clearance ([8]; E. faecium strain 15134) was 37 mm and the “Interpretive standard (resistant/susceptible)” value ([8]; E. faecium strain 15134) was “S”. For the same molecule, the Zone of clearance ([8]; E. faecium strain 21024) was 32 mm, the “Interpretive standard (resistant/susceptible)” value ([8]; E. faecium strain 21024) was “S” and the Zone of clearance ([8]; E. faecium strain 21955) was 32 mm. The “Interpretive standard (resistant/susceptible)” value ([8]; E. faecium strain 21955) was “S”, the Zone of clearance ([8]; E. faecium strain 22003) was 37 mm and the “Interpretive standard (resistant/susceptible)” value ([8]; E. faecium strain 22003) was “S”. The Zone of clearance ([8]; E. faecium strain 22870) was 10 mm, the “Interpretive standard (resistant/susceptible)” value ([8]; E. faecium strain 22870) was “R” and the Zone of clearance ([8]; E. faecium strain 23227) was 26 mm. For the same molecule, the “Interpretive standard (resistant/susceptible)” value ([8]; E. faecium strain 23227) was “S”, the Zone of clearance ([8]; E. faecium strain 23230) was 36 mm and the “Interpretive standard (resistant/susceptible)” value ([8]; E. faecium strain 23230) was “S”. For the same molecule, the Zone of clearance ([8]; E. faecium strain 23668) was 39 mm, the “Interpretive standard (resistant/susceptible)” value ([8]; E. faecium strain 23668) was “S” and the Zone of clearance ([8]; E. faecium strain 24169) was 33 mm. The “Interpretive standard (resistant/susceptible)” value ([8]; E. faecium strain 24169) was “S”, the Zone of clearance ([8]; E. faecium strain RC63) was 12 mm and the “Interpretive standard (resistant/susceptible)” value ([8]; E. faecium strain RC63) was “R”. The FIC compound ([9]; E. faecium strain 22870) was 0.128, the Interpretation ([9]; E. faecium strain 22870) was “Synergy (Synergy: FICI≤0.5)” and the Σ FIC ([9]; E. faecium strain 22870) was under 0.14. For the same molecule, the “MIC of antibiotic only” value ([9]; E. faecium strain 22870) was 250 µg/mL, the FIC antibiotic ([9]; E. faecium strain 22870) was 0.008 and the “MIC of antibiotic in combination” value ([9]; E. faecium strain 22870) was 2 µg/mL. For the same molecule, the FIC compound ([9]; E. faecium strain RC63) was 0252, the Interpretation ([9]; E. faecium strain RC63) was “Synergy (Synergy: FICI≤0.5)” and the Σ FIC ([9]; E. faecium strain RC63) was under 0.26. For the same molecule, the “MIC of antibiotic only” value ([9]; E. faecium strain RC63) was 250 µg/mL, the FIC antibiotic ([9]; E. faecium strain RC63) was 0.008 and the “MIC of antibiotic in combination” value ([9]; E. faecium strain RC63) was 2 µg/mL. The MIC (Escherichia coli [10]; read-out: MIC antibiotic only, Escherichia coli, antibiotic alone) was over 250 µg/mL, the MIC (Escherichia coli [10]; read-out: MIC antibiotic only, Escherichia coli, antibiotic alone, SP-BIM 9 checkerboard) was 250 µg/mL and the “MIC in combination: Antibiotic” value (Escherichia coli [10]; [17]) was 4. For the same molecule, the “FIC of SP-BIM 9” value (Escherichia coli [10]; [11]) was 0.064, the “FIC of SP-BIM 13” value (Escherichia coli [10]; [12]) was 0.5 and the Interpretation (Escherichia coli [10]; antibiotic + SP-BIM 9) was “Synergy (Synergy: FICI≤0.5)”. The “Σ FIC” value (Escherichia coli [10]; antibiotic + SP-BIM 9) was under 0.1, the Interpretation (Escherichia coli [10]; antibiotic + SP-BIM 13) was “Synergy (Synergy: FICI≤0.5)” and the “Σ FIC” value (Escherichia coli [10]; antibiotic + SP-BIM 13) was under 0.5. For the same molecule, the “MIC in combination, Antibiotic” value (Escherichia coli [10]; [13]) was 4 µg/mL, the FIC of antibiotic (Escherichia coli [10]; combination with SP-BIM 13) was 0.0 and the FIC of antibiotic (Escherichia coli [10]; in combination with SP-BIM 9) was 0.016. The MIC (Candida albicans; 24 h, read-out: MIC antibiotic only) was over 250 µg/mL, the “MIC in combination: Antibiotic” value (Candida albicans; [17]) was 0.5 and the “FIC of SP-BIM 13” value (Candida albicans; [12]) was 0.5. For the same molecule, the Interpretation (Candida albicans; antibiotic + SP-BIM 13) was “Synergy (Synergy: FICI≤0.5)”, the “Σ FIC” value (Candida albicans; antibiotic + SP-BIM 13) was under 0.5 and the FIC of antibiotic (Candida albicans; combination with SP-BIM 13) was 0.0.
